Reference: US20260055114A1, “IMIDAZO[1,2-B]PYRIDAZINE INHIBITORS OF CYCLIN-DEPENDENT KINASES” (H. LEE MOFFITT CANCER CENTER AND RESEARCH INSTITUTE, INC., priority 2022, published 2026)

Legend:
CDK12 = CDK12 (Homo sapiens, UniProt Q9NYV4); assay: Inhibition of cyclin-dependent kinase 12 (% enzyme activity at 1 uM and IC50); assay type: biochemical; conditions: for remaining activity at 1 µM: 1 uM compound
CCNK = CCNK degradation (DC50, Dmax); assay type: cell-based; conditions: for Dmax (%): CCNK degradation
MDA-MB-231 cell line = assay: Antiproliferative activity, MDA-MB-231 cell line (GI50); assay type: cell-based; conditions: Homo sapiens

Sequence of CDK12 (Q9NYV4 whole entry): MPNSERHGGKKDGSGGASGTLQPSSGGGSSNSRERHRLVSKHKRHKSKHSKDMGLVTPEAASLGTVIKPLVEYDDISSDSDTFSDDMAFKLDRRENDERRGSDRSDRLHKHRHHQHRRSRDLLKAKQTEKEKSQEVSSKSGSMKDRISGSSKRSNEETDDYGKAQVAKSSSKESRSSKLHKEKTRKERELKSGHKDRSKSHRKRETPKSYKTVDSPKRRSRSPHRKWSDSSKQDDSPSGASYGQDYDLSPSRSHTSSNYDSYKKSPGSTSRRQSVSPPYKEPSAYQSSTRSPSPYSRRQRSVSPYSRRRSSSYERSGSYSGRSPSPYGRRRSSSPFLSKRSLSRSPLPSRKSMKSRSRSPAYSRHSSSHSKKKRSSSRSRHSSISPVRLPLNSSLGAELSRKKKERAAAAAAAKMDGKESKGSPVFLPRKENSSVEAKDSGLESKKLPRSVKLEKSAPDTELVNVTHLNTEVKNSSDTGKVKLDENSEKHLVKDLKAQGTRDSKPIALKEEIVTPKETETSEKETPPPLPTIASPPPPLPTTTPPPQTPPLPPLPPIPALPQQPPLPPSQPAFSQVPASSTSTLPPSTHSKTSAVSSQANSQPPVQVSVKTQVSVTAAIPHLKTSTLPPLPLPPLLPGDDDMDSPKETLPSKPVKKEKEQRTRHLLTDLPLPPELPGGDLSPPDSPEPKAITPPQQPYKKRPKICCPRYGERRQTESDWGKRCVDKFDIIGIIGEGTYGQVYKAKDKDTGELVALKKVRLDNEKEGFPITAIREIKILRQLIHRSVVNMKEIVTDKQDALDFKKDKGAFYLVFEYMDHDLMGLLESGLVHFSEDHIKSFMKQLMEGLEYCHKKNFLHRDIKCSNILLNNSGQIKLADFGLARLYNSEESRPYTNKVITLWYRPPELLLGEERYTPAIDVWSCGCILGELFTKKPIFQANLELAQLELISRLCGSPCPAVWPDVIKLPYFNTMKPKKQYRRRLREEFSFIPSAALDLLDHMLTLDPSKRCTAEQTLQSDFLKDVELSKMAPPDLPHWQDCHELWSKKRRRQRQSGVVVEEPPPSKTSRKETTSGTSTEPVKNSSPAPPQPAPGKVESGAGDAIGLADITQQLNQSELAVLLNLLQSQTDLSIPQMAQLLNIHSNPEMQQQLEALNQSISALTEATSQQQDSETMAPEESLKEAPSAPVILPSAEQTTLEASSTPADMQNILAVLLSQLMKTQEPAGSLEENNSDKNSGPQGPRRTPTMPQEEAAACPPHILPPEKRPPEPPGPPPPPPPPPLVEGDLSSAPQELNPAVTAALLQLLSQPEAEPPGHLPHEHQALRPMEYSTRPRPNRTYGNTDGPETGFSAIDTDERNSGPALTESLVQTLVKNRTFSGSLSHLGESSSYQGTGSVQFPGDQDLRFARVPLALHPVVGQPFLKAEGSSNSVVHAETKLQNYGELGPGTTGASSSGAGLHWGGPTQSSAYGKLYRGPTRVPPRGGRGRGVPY
Sequence of CDK12 (O75909 whole entry partner): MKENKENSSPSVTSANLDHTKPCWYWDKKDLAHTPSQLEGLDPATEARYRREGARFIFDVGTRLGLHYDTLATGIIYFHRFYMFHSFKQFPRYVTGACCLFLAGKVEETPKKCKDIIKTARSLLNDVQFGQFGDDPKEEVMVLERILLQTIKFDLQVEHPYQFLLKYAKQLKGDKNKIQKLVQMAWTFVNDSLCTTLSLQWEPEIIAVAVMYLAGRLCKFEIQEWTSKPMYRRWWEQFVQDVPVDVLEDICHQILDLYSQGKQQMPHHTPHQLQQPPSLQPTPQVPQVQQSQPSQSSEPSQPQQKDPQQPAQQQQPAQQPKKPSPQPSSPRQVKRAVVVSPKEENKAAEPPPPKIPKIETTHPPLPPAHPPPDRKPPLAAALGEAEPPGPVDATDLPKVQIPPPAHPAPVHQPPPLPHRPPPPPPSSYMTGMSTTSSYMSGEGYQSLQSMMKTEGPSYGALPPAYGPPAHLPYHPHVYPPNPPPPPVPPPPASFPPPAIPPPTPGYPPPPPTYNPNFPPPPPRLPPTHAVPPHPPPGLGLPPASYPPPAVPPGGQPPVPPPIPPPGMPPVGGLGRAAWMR

NC1CCN(c2cc(NCc3nc4cccc(Cl)c4[nH]3)c3ncc(-c4ccsc4)n3n2)CC1 [Cmpd 70, 6-(4-aminopiperidin-1-yl)-N-((7-chloro-1H-benzo[d]imidazol-2-yl)methyl)-3-(thiophen-3-yl) imidazo[1,2-b]pyridazin-8-amine]
IC50 (CDK12): 78 nM | DC50 (CCNK): 160 nM | Dmax (%) (CCNK): 95% | GI50 (MDA-MB-231 cell line): 73 nM

CN1CCC(Nc2cc(NCc3nc4cccc(Cl)c4[nH]3)c3ncc(-c4ccsc4)n3n2)CC1 [Cmpd 71, N8-((7-chloro-1H-benzo[d]imidazol-2-yl)methyl)-N6-(1-methylpiperidin-4-yl)-3-(thiophen-3-yl) imidazo[1,2-b]pyridazine-6,8-diamine]
IC50 (CDK12): 130 nM | DC50 (CCNK): 160 nM | Dmax (%) (CCNK): 100% | GI50 (MDA-MB-231 cell line): 71 nM

Clc1cccc2nc(CNc3cc(NC4CCNCC4)nn4c(-c5ccsc5)cnc34)[nH]c12 [Cmpd 72, N8-((7-chloro-1H-benzo[d]imidazol-2-yl)methyl)-N6-(piperidin-4-yl)-3-(thiophen-3-yl) imidazo[1,2-b]pyridazine-6,8-diamine]
IC50 (CDK12): 56 nM | DC50 (CCNK): 50 nM | Dmax (%) (CCNK): 100% | GI50 (MDA-MB-231 cell line): 49 nM

Cc1ccnc2[nH]c(CNc3cc(N4CCN(C)CC4)nn4c(-c5ccsc5)cnc34)nc12 [Cmpd 75, N-((7-methyl-3H-imidazo[4,5-b]pyridin-2-yl)methyl)-6-(4-methylpiperazin-1-yl)-3-(thiophen-3-yl) imidazo[1,2-b]pyridazin-8-amine]
IC50 (CDK12): 38 nM | DC50 (CCNK): 140 nM | Dmax (%) (CCNK): 80% | GI50 (MDA-MB-231 cell line): 146 nM

Cc1ccnc2[nH]c(CNc3cc(N4CCOCC4)nn4c(-c5ccsc5)cnc34)nc12 [Cmpd 76, N-((7-methyl-3H-imidazo[4,5-b]pyridin-2-yl)methyl)-6-morpholino-3-(thiophen-3-yl) imidazo[1,2-b]pyridazin-8-amine]
IC50 (CDK12): 7380 nM | DC50 (CCNK): 250 nM | Dmax (%) (CCNK): 75% | GI50 (MDA-MB-231 cell line): 376 nM

CN1CCN(c2cc(NCc3nc4c(F)c(F)ccc4[nH]3)c3ncc(-c4ccsc4)n3n2)CC1 [Cmpd 78, N-((4,5-difluoro-1H-benzo[d]imidazol-2-yl)methyl)-6-(4-methylpiperazin-1-yl)-3-(thiophen-3-yl) imidazo[1,2-b]pyridazin-8-amine]
IC50 (CDK12): 473 nM | remaining activity at 1 µM (CDK12): 24% | DC50 (CCNK): 260 nM | Dmax (%) (CCNK): 80% | GI50 (MDA-MB-231 cell line): 425 nM

CN1CCN(c2cc(NCc3nc4cc(Cl)c(Cl)cc4[nH]3)c3ncc(-c4csc(C#N)c4)n3n2)CC1 [Cmpd 79, 4-(8-(((5,6-dichloro-1H-benzo[d]imidazol-2-yl)methyl)amino)-6-(4-methylpiperazin-1-yl)imidazo[1,2-b]pyridazin-3-yl)thiophene-2-carbonitrile]
IC50 (CDK12): 5000 nM | remaining activity at 1 µM (CDK12): 80% | DC50 (CCNK): 1700 nM | Dmax (%) (CCNK): 75% | GI50 (MDA-MB-231 cell line): 1470 nM

N#Cc1cc(-c2cnc3c(NCc4nc5cc(Cl)c(Cl)cc5[nH]4)cc(N4CCOCC4)nn23)cs1 [Cmpd 80, 4-(8-(((5,6-dichloro-1H-benzo[d]imidazol-2-yl)methyl)amino)-6-morpholinoimidazo[1,2-b]pyridazin-3-yl)thiophene-2-carbonitrile]
IC50 (CDK12): 3000 nM | remaining activity at 1 µM (CDK12): 75% | DC50 (CCNK): 1000 nM | Dmax (%) (CCNK): 95% | GI50 (MDA-MB-231 cell line): 867 nM

CN1CCN(c2cc(NCc3nc4cccc(Cl)c4[nH]3)c3ncc(-c4csc(C#N)c4)n3n2)CC1 [Cmpd 81, 4-(8-(((7-chloro-1/-benzo[d]imidazol-2-yl)methyl)amino)-6-(4-methylpiperazin-1-yl)imidazo[1,2-b]pyridazin-3-yl)thiophene-2-carbonitrile]
IC50 (CDK12): 647 nM | remaining activity at 1 µM (CDK12): 33% | DC50 (CCNK): 300 nM | Dmax (%) (CCNK): 80% | GI50 (MDA-MB-231 cell line): 1920 nM

CN1CCN(c2cc(NCc3nc4c(F)c(F)ccc4[nH]3)c3ncc(-c4csc(C#N)c4)n3n2)CC1 [Cmpd 82, 4-(8-(((4,5-difluoro-1H-benzo[d]imidazol-2-yl)methyl)amino)-6-(4-methylpiperazin-1-yl)imidazo[1,2-b]pyridazin-3-yl)thiophene-2-carbonitrile]
IC50 (CDK12): 405 nM | remaining activity at 1 µM (CDK12): 30% | DC50 (CCNK): 250 nM | Dmax (%) (CCNK): 50% | GI50 (MDA-MB-231 cell line): 1120 nM

Cc1cc(-c2cnc3c(NCc4nc5cccc(Cl)c5[nH]4)cc(N4CCN(C)CC4)nn23)cs1 [Cmpd 84, N-((7-chloro-1H-benzo[d]imidazol-2-yl)methyl)-6-(4-methylpipcrazin-1-yl)-3-(5-methylthiophen-3-yl) imidazo[1,2-b]pyridazin-8-amine]
remaining activity at 1 µM (CDK12): 61% | DC50 (CCNK): 1500 nM | Dmax (%) (CCNK): 80% | GI50 (MDA-MB-231 cell line): 2210 nM

Cc1cc(-c2cnc3c(NCc4nc5cccc(Cl)c5[nH]4)cc(N4CCOCC4)nn23)cs1 [Cmpd 85, N-((7-chloro-1H-benzo[d]imidazol-2-yl)methyl)-3-(5-methylthiophen-3-yl)-6-morpholinoimidazo[1,2-b]pyridazin-8-amine]
remaining activity at 1 µM (CDK12): 73% | DC50 (CCNK): 1200 nM | Dmax (%) (CCNK): 85% | GI50 (MDA-MB-231 cell line): 3910 nM

Cc1cc(-c2cnc3c(NCc4nc5cc(Cl)c(Cl)cc5[nH]4)cc(N4CCN(C)CC4)nn23)cs1 [Cmpd 87, N-((5,6-dichloro-1H-benzo[d]imidazol-2-yl)methyl)-6-(4-methylpiperazin-1-yl)-3-(5-methylthiophen-3-yl) imidazo[1,2-b]pyridazin-8-amine]
remaining activity at 1 µM (CDK12): 82% | DC50 (CCNK): 10000 nM | GI50 (MDA-MB-231 cell line): 7360 nM

Cc1cc(-c2cnc3c(NCc4nc5cc(Cl)c(Cl)cc5[nH]4)cc(N4CCOCC4)nn23)cs1 [Cmpd 88, N-((5,6-dichloro-1H-benzo[d]imidazol-2-yl)methyl)-3-(5-methylthiophen-3-yl)-6-morpholinoimidazo[1,2-b]pyridazin-8-amine]
remaining activity at 1 µM (CDK12): 82% | DC50 (CCNK): 1800 nM | Dmax (%) (CCNK): 100% | GI50 (MDA-MB-231 cell line): 460 nM

Cc1cc(-c2cnc3c(NCc4nc5c(C)ccnc5[nH]4)cc(N4CCN(C)CC4)nn23)cs1 [Cmpd 90, N-((7-methyl-3H-imidazo[4,5-b]pyridin-2-yl)methyl)-6-(4-methylpiperazin-1-yl)-3-(5-methylthiophen-3-yl) imidazo[1,2-b]pyridazin-8-amine]
IC50 (CDK12): 1410 nM | remaining activity at 1 µM (CDK12): 36% | DC50 (CCNK): 10000 nM | GI50 (MDA-MB-231 cell line): 4160 nM

Cc1cc(-c2cnc3c(NCc4nc5c(C)ccnc5[nH]4)cc(N4CCOCC4)nn23)cs1 [Cmpd 91, N-((7-methyl-3H-imidazo[4,5-b]pyridin-2-yl)methyl)-3-(5-methylthiophen-3-yl)-6-morpholinoimidazo[1,2-b]pyridazin-8-amine]
remaining activity at 1 µM (CDK12): 103% | DC50 (CCNK): 10000 nM | GI50 (MDA-MB-231 cell line): 3940 nM

Cc1cc(-c2cnc3c(NCc4nc5c(F)cccc5[nH]4)cc(N4CCN(C)CC4)nn23)cs1 [Cmpd 93, N-((4-fluoro-1H-benzo[d]imidazol-2-yl)methyl)-6-(4-methylpiperazin-1-yl)-3-(5-methylthiophen-3-yl) imidazo[1,2-b]pyridazin-8-amine]
IC50 (CDK12): 1220 nM | remaining activity at 1 µM (CDK12): 36% | DC50 (CCNK): 80 nM | Dmax (%) (CCNK): 80% | GI50 (MDA-MB-231 cell line): 1250 nM

Cc1cc(-c2cnc3c(NCc4nc5c(F)cccc5[nH]4)cc(N4CCOCC4)nn23)cs1 [Cmpd 94, N-((4-fluoro-1H-benzo[d]imidazol-2-yl)methyl)-3-(5-methylthiophen-3-yl)-6-morpholinoimidazo[1,2-b]pyridazin-8-amine]
remaining activity at 1 µM (CDK12): 70% | DC50 (CCNK): 1000 nM | Dmax (%) (CCNK): 80% | GI50 (MDA-MB-231 cell line): 1500 nM
